Laboratory results taken from PubChem BioAssay (NCI).
Where “and” joins values, the source holds several entries; their conditions need not be identical. Equal values may be shown once.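 Following 48 hours of exposure in 96-well plates, responses at five concentrations were used to interpolate endpoints linearly. GI50 is the concentration that inhibits growth by half. Definition used: TGI = concentration required for complete inhibition of growth.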

Tests used:
Test in all cases: DTP human tumour cell line panel, 48 h
A498 renal = tested on: A498 renal
ACHN renal = tested on: ACHN renal
HOP-92 NSCLC = tested on: HOP-92 NSCLC
HT29 colon = tested on: HT29 colon
LOX IMVI melanoma = tested on: LOX IMVI melanoma
NCI-H23 lung = tested on: NCI-H23 lung
SW-620 colon = tested on: SW-620 colon
TK-10 renal = tested on: TK-10 renal
U251 CNS = tested on: U251 CNS
UO-31 renal = tested on: UO-31 renal

SMILES | GI50 (A498 renal) | TGI (A498 renal) | GI50 (ACHN renal) | TGI (ACHN renal) | GI50 (HOP-92 NSCLC) | TGI (HOP-92 NSCLC) | GI50 (HT29 colon) | TGI (HT29 colon) | GI50 (LOX IMVI melanoma) | TGI (LOX IMVI melanoma) | GI50 (NCI-H23 lung) | TGI (NCI-H23 lung) | GI50 (SW-620 colon) | TGI (SW-620 colon) | GI50 (TK-10 renal) | TGI (TK-10 renal) | GI50 (U251 CNS) | TGI (U251 CNS) | GI50 (UO-31 renal) | TGI (UO-31 renal)
Cc1nc2sccn2c1/C=C1/C(=O)Nc2ccccc21 | 1.68 µM | 9.72 µM | 8.29 µM | > 100 µM | 17.9 µM | > 100 µM | 2.81 µM | > 100 µM | 8.42 µM | > 100 µM | > 30.3 µM | > 100 µM | 3.06 µM | > 100 µM | 6.55 µM | > 78.1 µM | 4.96 µM | > 74.3 µM | 18.7 µM | > 100 µM
COc1ccc(-c2[nH]ncc2-c2cc3c(c(OC)c2)OCC(=O)N3)cc1 | 0.17 µM | 0.646 µM | 0.85 µM | > 100 µM | 1.11 µM | 99.7 µM | 0.378 µM | > 100 µM | 0.522 µM | > 100 µM | 1.46 µM | > 77.7 µM | 0.356 µM | > 54 µM | 7.59 µM | > 100 µM | 0.481 µM | > 100 µM | 1.44 µM | 53.8 µM
CN1CCN(c2ccc(C(=O)Nc3n[nH]c4ccc(Cc5cc(F)cc(F)c5)cc34)c(NC3CCOCC3)c2)CC1 | 1.77 µM and 0.846 µM | 6.85 µM and 2.24 µM | 2.25 µM and 1.42 µM | > 10 µM and 2.8 µM | 0.446 µM and 1.04 µM | 3.03 µM and 2.4 µM | 0.971 µM and 1.06 µM | 3.38 µM and 2.46 µM | 1.35 µM and 1.34 µM | 2.7 µM and 2.69 µM | 2.63 µM and 1.61 µM | > 10 µM and 3.54 µM | 1.32 µM and 1.33 µM | 3.44 µM and 2.76 µM | 2.35 µM and 1.42 µM | > 10 µM and 2.78 µM | 1.64 µM and 1.54 µM | 3.29 µM and 2.95 µM | 1.03 µM and 1.17 µM | 2.28 µM and 2.61 µM
Cc1c2cc[nH]c(=O)c2c(C)c2c1[nH]c1cc(OCCN3CCN(C)CC3)ccc12 | 1.3 µM | 2.94 µM | 0.473 µM | 3.83 µM | 0.798 µM | 5.46 µM | 0.432 µM | 2.03 µM | 0.484 µM | 1.9 µM | 0.833 µM | 3.67 µM | 0.381 µM | 2.48 µM | 2.73 µM | 13.7 µM | 0.953 µM | 6.66 µM | 1.06 µM | 3.09 µM
[O-]/[N+](=C\c1ccccc1)[C@H](COCc1ccccc1)c1ccccc1 | – | > 100 µM | – | > 100 µM | – | 92.7 µM | – | > 100 µM | – | > 100 µM | – | > 100 µM | – | > 100 µM | – | > 100 µM | – | > 100 µM | – | > 100 µM
O=C(O)CSCc1cccc2ccccc12 | – | > 100 µM | – | > 100 µM | – | > 100 µM | – | > 100 µM | – | > 100 µM | – | > 100 µM | – | > 100 µM | – | > 100 µM | – | > 100 µM | – | > 100 µM
CNC(=O)c1cc(COc2nnc(Nc3ccc(Cl)cc3)c3ccoc23)ccn1 | 6.65 µM and > 10 µM | 21.9 µM and > 10 µM | 3.86 µM and 7.18 µM | 15.4 µM and > 10 µM | 2.9 µM and 3.78 µM | 14.4 µM and > 10 µM | 9.45 µM and > 10 µM | 31.2 µM and > 10 µM | 6.41 µM and > 10 µM | 25.1 µM and > 10 µM | 11.1 µM and > 10 µM | 37.8 µM and > 10 µM | 21.1 µM and > 10 µM | 56.6 µM and > 10 µM | 3.59 µM and 8.84 µM | 11.8 µM and > 10 µM | 5.34 µM and 4.26 µM | 16.8 µM and > 10 µM | 3.3 µM and 4.57 µM | 15 µM and > 10 µM
COc1cc2c(cc1OC)C13CCN4C=C5CCOC6CC(=O)N2C1C6C5CC43 (centres undefined) | – | > 100 µM | – | > 100 µM | – | > 100 µM | – | > 100 µM | – | > 100 µM | – | > 100 µM | – | > 100 µM | – | > 100 µM | – | > 100 µM | – | > 100 µM
Cc1cc(C)nc(NC(N)=NCCc2ccccc2)n1 | 5.26 µM | 39 µM | 4.94 µM | > 100 µM | 3.97 µM | 73.1 µM | 3.02 µM | > 100 µM | 2.03 µM | 44.3 µM | 7.02 µM | > 100 µM | 3.51 µM | > 100 µM | 17.6 µM | > 100 µM | 3.15 µM | > 100 µM | 5.54 µM | 50.8 µM
CN(C)CCCOc1ccccc1NC1=C(Cl)C(=O)C(Nc2ccccc2OCCCN(C)C)=C(Cl)C1=O | 1.84 µM | 5.6 µM | 0.941 µM | 2.13 µM | 1.33 µM | 2.82 µM | 0.253 µM | 0.584 µM | 0.18 µM | 0.355 µM | 0.57 µM | 1.38 µM | 0.207 µM | 0.415 µM | 1.93 µM | 3.36 µM | 0.611 µM | 1.3 µM | 1.21 µM | 2.46 µM
C(=Nc1ccccc1)C1CCCC[N-]1.C(=Nc1ccccc1)C1CCCC[N-]1.[Cu+2].[O-][Cl+3]([O-])([O-])O (centres undefined) | 18.1 µM | 44.9 µM | 1.45 µM | 12.3 µM | 23 µM | > 73.9 µM | 15.5 µM | 30.8 µM | 0.0132 µM | 11.8 µM | 15.1 µM | 33.2 µM | 10.4 µM | 32.4 µM | 9.8 µM | 32.7 µM | 10.7 µM | 30.4 µM | 12.6 µM | > 94.3 µM
Cc1ccc(C(=O)N(CCCN)[C@@H](c2nc3cc(Cl)ccc3c(=O)n2Cc2ccccc2)C(C)C)cc1 | < 0.01 µM | 1.77 µM and 0.816 µM | 0.798 µM | 2.38 µM and 2.15 µM | 1 µM | 2 µM and 2.33 µM | < 0.01 µM | 1.03 µM and 1.49 µM | < 0.01 µM | 1.81 µM and 1.52 µM | < 0.01 µM | 1.59 µM and 1.67 µM | < 0.01 µM | 1.28 µM and 1.61 µM | – | 1.71 µM and 2.81 µM | < 0.01 µM | 1.19 µM and 1.53 µM | 1.12 µM and 1.02 µM | 2.58 µM and 2.27 µM
